Holding throughout (format): physicochemical
The nature of data set [1]: Dynamic vapor sorption (DVS), with PXRD and TG-FTIR of the post-DVS sample. The note with it: for Solid form of the sample recovered post-DVS (PXRD): PXRD after DVS; for Water content of the post-DVS sample by TG-FTIR: sample recovered at end of DVS test; for Total water content change during the DVS cycles: wet sample used. As to the method:
Dynamic vapor sorption: DVS measurements were performed with an SPS11-100n “Sorptions Prifsystem” from ProUmid (formerly “Projekt Messtechnik”), August-Nagel-Str. 23, 89079 Ulm (Germany). About 5-20 mg of sample was put into an aluminum sample pan. Humidity change rates of 5% per hour were used. The applied measurement program is visualized in the figure (blue trace). The presentations showing the effective water content are corrected.
The sample was placed on an aluminum or platinum holder on top of a microbalance and allowed to equilibrate at 50% RH before starting the pre-defined humidity programs. The measurement program is visualized in the figures of the report.
Classification of Hygroscopicity: The hygroscopicity was classified based on the mass gain at 85% RH relative to the initial mass as follows: deliquescent (sufficient water adsorbed to form a liquid), very hygroscopic (mass increase of ≥15%), hygroscopic (mass increase <15% but ≥2%), slightly hygroscopic (mass increase <2% but ≥0.2%), or non-hygroscopic (mass increase <0.2%).

The nature of data set [2]: Physical form stability on drying (PXRD). As to the method:
PowderX-ray diffraction: Powder X-ray diffraction was carried out with a Stoe Stadi P diffractometer equipped with a Mythen1K detector operating with Cu—Kα1 radiation. The measurements with this instrument were performed in transmission at a tube voltage of 40 kV and 40 mA tube power. A curved Ge monochromator allows testing with Cu—Kα1 radiation. The following parameters were set: 0.02° 20 step size, 12 s step time, 1.5-50.5° 20 scanning range, and 1° 20 detector step (detector mode in step scan). For a typical sample preparation about 10 mg of sample was placed between two acetate foils and mounted into a Stoe transmission sample holder. The sample was rotated during the measurement. All sample preparation and measurement was done in an ambient air atmosphere.
The first crystalline form of Compound (I) was designated as Form A and was obtained from a suspension equilibration experiment of the amorphous form in an isopropanol—water mixture. Form A was characterized by PXRD, TG-FTIR, H-NMR and DVS.
The PXRD pattern of Form A is depicted in FIG. 1. It should be noted that this sample was examined by PXRD before drying and that the undried sample is highly crystalline in nature. […] A TG-FTIR of the crystal Form A sample without much drying indicated a large mass loss of 36.6% that is attributable to water and isopropanol. Given the large mass loss it was concluded that drying was insufficient, and therefore the sample was further dried under vacuum at ambient temperature for about 23 hours and a new TG-FTIR was recorded.
As with Form A, Form B was examined by PXRD before drying was indicated to be highly crystalline in nature. […] A TG-FTIR was carried out for Form B without further drying and the thermogram indicated a large mass loss of 36.5% that is attributable to water; however no alcohol was detected. Given the large mass loss it was concluded that drying was insufficient, and the sample was subjected to further vacuum drying at ambient temperature for ten minutes and a new TG-FTIR was recorded. The new TG-FTIR thermogram indicated a water content of about 4.6%.

A short description of data set [3]: Approximate solubility by incremental addition of solvent. The conditions noted are these: for solubility: thermodynamic from solid. As for the experimental part:
Solubility: Approximate solubilities were determined by incremental addition of solvent to about 10 mg the compound. If the substance was not dissolved by addition of a total of at least 10 ml solvent, the solubility is indicated as <1 mg/ml. Due to the experimental error inherent in this method, the solubility values are intended to be regarded as rough estimates and are to be used solely for the design of crystallization experiments.
Approximate solubilities were determined for amorphous Compound (I) at room temperature. These values were obtained by addition of small aliquots of solvent to small amounts of solid to achieve dissolution by stirring or agitation for a short period of time. […] Ratios for solvent mixtures correspond to volume ratios.
Initially the tests were carried out with the amorphous form Compound (I) and later on, after stable crystalline Form D (Example 7 below) was discovered, some of the tests were repeated with the crystalline form. […] Antisolvents are water, heptane, and TBME. […] Based on available data and further experiments diisopropylether, cyclohexane and methylcyclohexane can also be used as antisolvents.

Data set [4] can be described thus: Solubility tests in potential process solvent mixtures. The conditions noted are these: thermodynamic from solid.
Data set [5] is described as follows: pH dependent solubility tests in 0.1 M HCl, citrate buffer and USP phosphate buffers. The note with it: aqueous buffer, thermodynamic from solid. As for the experimental part: pH dependent solubility tests were conducted in 0.1 M HCl, in citrate buffer, and in USP phosphate buffers with nominal pH values of 6.8 and 7.4. Solubility tests at pH values below 5 failed because all compounds dissolved during the equilibration phase.

Data set [6] is described as follows: Aqueous solubility. The note with it: water, thermodynamic from solid, equilibration time 24 hours, pH 8.49.

In general, solubility refers to the concentration that dissolves in the medium under given conditions.

Molecules are shown by their SMILES. ≈ marks a conversion by molar mass, not a printed value.

`CN1CCN(C[C@H]2COc3cc4ncnc(Nc5cccc(Br)c5F)c4cc3O2)CC1` [Form A, (S)—N-(3-bromo-2-fluorophenyl)-7-((4-methylpiperazin-1-yl)methyl)-7,8-dihydro-[1,4]dioxino[2,3-g]quinazolin-4-amine]: in data set [1], the “Solid form of the sample recovered post-DVS (PXRD)” value (“Solid form … (PXRD)” below) is listed as “Form A was retained” and the “Water uptake above 50% r.h. in DVS” value is “just small amounts of water”. Also, the “Water lost below 50% r.h. during the DVS cycles” value in data set [1] (below 50% r.h.) is recorded as “about 8%”. Besides, the “Water content change over the whole range of relative humidity” value in data set [1] (from 0% to 95% r.h., roughly three waters per Compound (I)) is recorded as approximately 10%. The Physical form stability result in data set [2] is “poor physical form stability”. In addition, in data set [2] (dried under vacuum at ambient temperature for about 23 hours), the “PXRD of the dried sample” value is reported as “essentially amorphous material”. In data set [2] (drying of highly crystalline, solvent-rich samples), the “Effect of drying on crystallinity” value is “significant loss of crystallinity”.
Regarding `CN1CCN(C[C@H]2COc3cc4ncnc(Nc5cccc(Br)c5F)c4cc3O2)CC1` [Form B, (S)—N-(3-bromo-2-fluorophenyl)-7-((4-methylpiperazin-1-yl)methyl)-7,8-dihydro-[1,4]dioxino[2,3-g]quinazolin-4-amine], in data set [1], the “Solid form … (PXRD)” value is “crystallinity was lost”, the “Water uptake above 50% r.h. in DVS” value is reported as “just small amounts of water”, the “Water content of the post-DVS sample by TG-FTIR” value is given as “about 6.4%” and the “Total water content change during the DVS cycles” value is listed as “about 13%”. In addition, the Physical form stability entry in data set [2] is reported as “poor physical form stability”. The “Solid form after further drying” value in data set [2] (further drying beyond ten minutes vacuum) was “completely amorphous material”. In addition, the “PXRD of the dried sample” value in data set [2] (vacuum drying at ambient temperature for ten minutes) is listed as “dramatic loss of crystallinity”.
Take `CN1CCN(C[C@H]2COc3cc4ncnc(Nc5cccc(Br)c5F)c4cc3O2)CC1` [Form C, (S)—N-(3-bromo-2-fluorophenyl)-7-((4-methylpiperazin-1-yl)methyl)-7,8-dihydro-[1,4]dioxino[2,3-g]quinazolin-4-amine]: in data set [1], the “Solid form … (PXRD)” value is “crystallinity was lost almost completely”, the “Water uptake above 50% r.h. in DVS” value was “just small amounts of water”, the “Water content of the post-DVS sample by TG-FTIR” value was “about 5.9%” and the “Total water content change during the DVS cycles” value was “about 14%”. Moreover, in data set [1] (end of test), the “Water content at the end of the DVS test” value is reported as “about 5.9%”. The Physical form stability result in data set [2] is recorded as “poor physical form stability”.
Take `CN1CCN(C[C@H]2COc3cc4ncnc(Nc5cccc(Br)c5F)c4cc3O2)CC1` [Form D, (S)—N-(3-bromo-2-fluorophenyl)-7-((4-methylpiperazin-1-yl)methyl)-7,8-dihydro-[1,4]dioxino[2,3-g]quinazolin-4-amine]: the “Water uptake in DVS” value in data set [1] (at 95% relative humidity) was “up to 0.8%”. The “Water release in DVS” value in data set [1] (humidity scanned back to 0% r.h.) is listed as “lost all its water”. For the same compound, the solubility was more than 200 mg/mL in data set [3] (1-methoxy-2-propanol, organic solvent or mixture, Propanol, 1-methoxy-2-, room temperature); more than 20 mg/mL in data set [3] (2-propanol/heptane (1/1, v/v), organic solvent or mixture, Propanol, 2-/heptane 1/1, room temperature); approximately 7 mg/mL (≈ 14.3 mM) in data set [3] (acetone/heptane (1/3, v/v), organic solvent or mixture, Acetone/heptane 1/3, room temperature); more than 107 mg/mL in data set [3] (ethanol/n-heptane (1/3, v/v), organic solvent or mixture, Ethanol/n-heptane (1/3), room temperature); approximately 3 mg/mL (≈ 6.14 mM) in data set [3] (ethyl acetate/n-heptane (1/3, v/v), organic solvent or mixture, Ethyl acetate/n-heptane (1/3), room temperature); more than 136 mg/mL in data set [3] (isobutyl alcohol, organic solvent or mixture, Isobutylalcohol, room temperature). Besides, the solubility in data set [3] (isopropyl acetate, organic solvent or mixture, room temperature) is 90 to 180 mg/mL (≈ 184 to 369 mM); in data set [3] (water, room temperature), less than 1 mg/mL; in data set [4] (25 °C, aqueous with cosolvent or surfactant or cyclodextrin, Isopropanol - water 1:1) it was 20.3 mg/mL (≈ 41.6 mM); in data set [4] (25 °C, aqueous with cosolvent or surfactant or cyclodextrin, Isopropanol - water 1:3) it was 1.2 mg/mL (≈ 2.46 mM); in data set [4] (25 °C, organic solvent or mixture, Ethyl acetate - heptane 1:1) it was 23.1 mg/mL (≈ 47.3 mM); in data set [4] (ethyl acetate - heptane 1:3, 25 °C, organic solvent or mixture) it was 6.3 mg/mL (≈ 12.9 mM). Moreover, the solubility in data set [5] (USP phosphate buffer (nominal pH 6.8), effective pH 6.97) came to 0.21 mg/mL (≈ 0.43 mM); in data set [5] (USP phosphate buffer (nominal pH 7.4), effective pH 7.47), 0.084 mg/mL (≈ 0.172 mM); in data set [5] (citrate buffer, effective pH 5.28), 13.1 mg/mL (≈ 26.8 mM); in data set [5] (citrate buffer, effective pH 6.11), 6.6 mg/mL (≈ 13.5 mM). Also, in data set [3] (in acetonitrile and ethyl acetate), the “Solubility compared with the amorphous form (in words)” value is “substantially lower”. Moreover, in data set [6], the solubility at 24 h worked out at 0.066 mg/mL (≈ 0.135 mM).

Values taken from patent US12545686B2, “Polymorphic forms of (s)-n-(3-bromo-2-fluorophenyl)-7-((4-methylpiperazin-1-yl)methyl)-7,8-dihydro-[1,4]dioxino[2,3-g]quinazolin-4-amine as EGFR inhibitors” (ERASCA, INC., priority 2021, dated 2026).
